Assay results as given in US10988478B1, “Pyrazolo[1,5a]pyrimidine derivatives as IRAK4 modulators” (Genentech, Inc., priority 2015, dated 2021).

Target: human IRAK4 (Homo sapiens (Human), UniProt Q9NWZ3)
Assay: IRAK4 kinase inhibition, Transcreener fluorescence polarization ADP assay
Type: biochemical
Details: recombinant full-length His6-IRAK4; 125 uM ATP; 90 min; Ki computed using ATP Km 642 uM
Experimental: Compounds were assayed for inhibition of human IRAK4 and IRAK1 catalytic activity using recombinant enzyme produced from insect cells. Full-length IRAK4 protein, carrying an N-terminal His6-Tag, was obtained from Life Technologies (Carlsbad, Calif., USA). The IRAK1 construct was produced internally and was comprised of IRAK1 residues Arg194 to Ser712, preceded by an NH2-terminal His6 tag and the coding sequence for glutathione-S-transferase.

Chain of human IRAK4 (Q9NWZ3 whole entry): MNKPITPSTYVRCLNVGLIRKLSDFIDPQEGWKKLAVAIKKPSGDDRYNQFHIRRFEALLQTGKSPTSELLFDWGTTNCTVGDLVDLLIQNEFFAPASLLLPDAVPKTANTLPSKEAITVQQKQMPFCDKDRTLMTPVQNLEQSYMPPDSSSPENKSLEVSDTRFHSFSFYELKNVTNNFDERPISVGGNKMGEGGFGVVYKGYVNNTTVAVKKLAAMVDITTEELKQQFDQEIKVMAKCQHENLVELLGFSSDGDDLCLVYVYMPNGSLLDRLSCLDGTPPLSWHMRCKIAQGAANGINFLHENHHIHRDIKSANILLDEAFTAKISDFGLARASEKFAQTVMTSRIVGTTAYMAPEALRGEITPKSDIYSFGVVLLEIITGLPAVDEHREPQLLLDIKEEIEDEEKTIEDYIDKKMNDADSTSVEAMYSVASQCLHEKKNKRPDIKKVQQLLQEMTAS

SMILES	Ki [nM]
C[C@@]1(CO)Cc2cc(NC(=O)c3cnn4cccnc34)c(N3CCC(F)(F)CC3)cc2O1 [Example 121, (S)—N-(6-(4,4-Difluoropiperidin-1-yl)-2-(hydroxymethyl)-2-methyl-2,3-dihydrobenzofuran-5-yl)pyrazolo[1,5-a]pyrimidine-3-carboxamide]	16
C[C@]1(CO)Cc2cc(NC(=O)c3cnn4cccnc34)c(N3CCC(F)(F)CC3)cc2O1 [Example 122, (R)—N-(6-(4,4-difluoropiperidin-1-yl)-2-(hydroxymethyl)-2-methyl-2,3-dihydrobenzofuran-5-yl)pyrazolo[1,5-a]pyrimidine-3-carboxamide]	6
C[C@]1(CO)Cc2cc(NC(=O)c3cnn4cccnc34)c(N3CCC4(CCOC4)CC3)cc2O1 [Example 125, (R)—N-(2-(Hydroxymethyl)-2-methyl-6-(2-oxa-8-azaspiro[4.5]decan-8-yl)-2,3-dihydrobenzofuran-5-yl)pyrazolo[1,5-a]pyrimidine-3-carboxamide]	5
C[C@@]1(CO)Cc2cc(NC(=O)c3cnn4cccnc34)c(N3CCC4(CCOC4)CC3)cc2O1 [Example 126, (S)—N-(2-(hydroxymethyl)-2-methyl-6-(2-oxa-8-azaspiro[4.5]decan-8-yl)-2,3-dihydrobenzofuran-5-yl)pyrazolo[1,5-a]pyrimidine-3-carboxamide]	5.7
C[C@]1(CO)Cc2cc(NC(=O)c3cnn4cccnc34)c(N3CCC(CO)CC3)cc2O1 [Example 129, (R)—N-(2-(Hydroxymethyl)-6-(4-(hydroxymethyl)piperidin-1-yl)-2-methyl-2,3-dihydrobenzofuran-5-yl)pyrazolo[1,5-a]pyrimidine-3-carboxamide]	3.2
C[C@@]1(CO)Cc2cc(NC(=O)c3cnn4cccnc34)c(N3CCC(CO)CC3)cc2O1 [Example 130, (S)—N-(2-(hydroxymethyl)-6-(4-(hydroxymethyl)piperidin-1-yl)-2-methyl-2,3-dihydrobenzofuran-5-yl)pyrazolo[1,5-a]pyrimidine-3-carboxamide]	3.3
C[C@@]1(CO)Cc2cc(NC(=O)c3cnn4cc(F)cnc34)c(N3CCN(CC(F)F)CC3)cc2O1 [Example 132, (S)—N-(6-(4-(2,2-Difluoroethyl)piperazin-1-yl)-2-(hydroxymethyl)-2-methyl-2,3-dihydrobenzofuran-5-yl)-6-fluoropyrazolo[1,5-a]pyrimidine-3-carboxamide]	4.8
C[C@]1(CO)Cc2cc(NC(=O)c3cnn4cc(F)cnc34)c(N3CCN(CC(F)F)CC3)cc2O1 [Example 133, (R)—N-(6-(4-(2,2-Difluoroethyl)piperazin-1-yl)-2-(hydroxymethyl)-2-methyl-2,3-dihydrobenzofuran-5-yl)-6-fluoropyrazolo[1,5-a]pyrimidine-3-carboxamide]	4.1
CC1(C)Cc2cc(NC(=O)c3cnn4cccnc34)c(N3CCN(C(C)(C)CO)CC3)cc2O1 [Example 137, N-[6-[4-(2-Hydroxy-1,1-dimethyl-ethyl)piperazin-1-yl]-2,2-dimethyl-3H-benzofuran-5-yl]pyrazolo[1,5-a]pyrimidine-3-carboxamide]	170
CC(C)N1Cc2cc(NC(=O)c3cnn4cccnc34)c(N3CCOCC3)cc2C1=O [Example 138, N-(2-Isopropyl-6-morpholino-1-oxoisoindolin-5-yl)pyrazolo[1,5-a]pyrimidine-3-carboxamide]	6.8
CC(C)(O)[C@H](F)CN1Cc2cc(NC(=O)c3cnn4cccnc34)c(N3CCOCC3)cc2C1=O [Example 139, (R)—N-(2-(2-Fluoro-3-hydroxy-3-methylbutyl)-6-morpholino-1-oxoisoindolin-5-yl)pyrazolo[1,5-a]pyrimidine-3-carboxamide]	1.5
CN1Cc2cc(NC(=O)c3cnn4cccnc34)c(N3CCOCC3)cc2C1=O [Example 140, N-(2-Methyl-6-morpholino-1-oxoisoindolin-5-yl)pyrazolo[1,5-a]pyrimidine-3-carboxamide]	26
CC1(CO)CCc2cc(NC(=O)c3cnn4cccnc34)c(N3CCOCC3)cc2O1 (centres unmarked) [Example 141, N-(2-(Hydroxymethyl)-2-methyl-7-morpholinochroman-6-yl)pyrazolo[1,5-a]pyrimidine-3-carboxamide]	16
O=C(Nc1cc2c(cc1N1CCOCC1)OC1(CCNCC1)C2)c1cnn2cccnc12 [Example 142, N-(6-Morpholinospiro[3H-benzofuran-2,4′-piperidine]-5-yl)pyrazolo[1,5-a]pyrimidine-3-carboxamide]	20
CC1(C)Cc2cc(NC(=O)c3cnn4cccnc34)c(N3CCOCC3)c(C#N)c2O1 [Example 143, N-(7-Cyano-2,2-dimethyl-6-morpholino-2,3-dihydrobenzofuran-5-yl)pyrazolo[1,5-a]pyrimidine-3-carboxamide]	740
Cc1cnc2c(C(=O)Nc3cc4c(cc3N3CCOCC3)OC(C)(C(F)F)C4)cnn2c1 (centres unmarked) [Example 144, N-(2-(Difluoromethyl)-2-methyl-6-morpholino-2,3-dihydrobenzofuran-5-yl)-6-methylpyrazolo[1,5-a]pyrimidine-3-carboxamide]	13
CCOP(=O)(OCC)OCC1CCN(c2cc3c(cc2NC(=O)c2cnn4cccnc24)CC(C)(C)O3)CC1 [Example 145, [1-[2,2-Dimethyl-5-(pyrazolo[1,5-a]pyrimidine-3-carbonylamino)-3H-benzofuran-6-yl]-4-piperidyl]methyl diethyl phosphate]	130
CN1CC2(Cc3cc(NC(=O)c4cnn5cccnc45)c(N4CCOCC4)cc3O2)C1 [Example 146, N-(1-methyl-6′-morpholino-3′H-spiro[azetidine-3,2′-benzofuran]-5′-yl)pyrazolo[1,5-a]pyrimidine-3-carboxamide]	27
O=C(Nc1cc2c(cc1N1CCOCC1)OC1(C2)CN(CC(F)F)C1)c1cnn2cccnc12 [Example 147, N-(1-(2,2-Difluoroethyl)-6′-morpholino-3′H-spiro[azetidine-3,2′-benzofuran]-5′-yl)pyrazolo[1,5-a]pyrimidine-3-carboxamide]	23
O=C(Nc1cc2c(cc1N1CCOCC1)OC1(C2)CN(CC(F)(F)F)C1)c1cnn2cccnc12 [Example 148, N-[6-Morpholino-1′-(2,2,2-trifluoroethyl)spiro[3H-benzofuran-2,3′-azetidine]-5-yl]pyrazolo[1,5-a]pyrimidine-3-carboxamide]	6.1
CC1(C)Cc2cc(NC(=O)c3cnn4cccnc34)c(N3CCCN(CC(F)F)CC3)cc2O1 [Example 149, N-(6-(4-(2,2-difluoroethyl)-1,4-diazepan-1-yl)-2,2-dimethyl-2,3-dihydrobenzofuran-5-yl)pyrazolo[1,5-a]pyrimidine-3-carboxamide]	25
CC(C)C1(C)Cc2cc(NC(=O)c3cnn4cccnc34)c(N3CCOCC3)cc2O1 (centres unmarked) [Example 150, N-(2-Isopropyl-2-methyl-6-morpholino-2,3-dihydrobenzofuran-5-yl)pyrazolo[1,5-a]pyrimidine-3-carboxamide]	89
CC(C)(O)CN1CCN(c2cc3c(cc2NC(=O)c2cnn4cccnc24)CC(C)(CO)O3)CC1 (centres unmarked) [Example 151, N-(6-(4-(2-Hydroxy-2-methylpropyl)piperazin-1-yl)-2-(hydroxymethyl)-2-methyl-2,3-dihydrobenzofuran-5-yl)pyrazolo[1,5-a]pyrimidine-3-carboxamide]	72
